Consider eleven compounds from BindingDB's records for doi:10.1021/jm00001a017 (Bristol-Myers Squibb Pharmaceutical Research Institute, 1995).

The assay has as its target Voltage-dependent L-type calcium channel (Cavia porcellus). Put plainly: Displacement of [3H]nitrendipine from dihydropyridine receptor of guinea pig myocardial membranes.
For orientation: Kd means the equilibrium constant for the complex coming apart. With `CSC1=NC2=C(C(=O)OC2)C(c2cccc([N+](=O)[O-])c2SC)N1` (stereo unspecified) [2-Methylsulfanyl-4-(2-methylsulfanyl-3-nitro-phenyl)-4,7-dihydro-1H-furo[3,4-d]pyrimidin-5-one], the dissociation constant Kd was 13.7 µM.
Consider `CSC1=NC(c2cc([N+](=O)[O-])ccc2SC)C2=C(COC2=O)N1` (stereo unspecified) [2-Methylsulfanyl-4-(2-methylsulfanyl-5-nitro-phenyl)-4,7-dihydro-1H-furo[3,4-d]pyrimidin-5-one], for which the dissociation constant Kd was greater than 50 µM.
As for `CSC1=NC(c2ccccc2SC)c2c(coc2O)N1` (stereo unspecified) [2-Methylsulfanyl-4-(2-methylsulfanyl-phenyl)-4,7-dihydro-1H-furo[3,4-d]pyrimidin-5-one], the Kd is 45.2 µM.
With `CSC1=NC(c2cccc([N+](=O)[O-])c2)C2=C(COC2=O)N1` (stereo unspecified) [2-Methylsulfanyl-4-(3-nitro-phenyl)-4,7-dihydro-1H-furo[3,4-d]pyrimidin-5-one] the figure was 36.9 µM; with `CCCCSc1ccccc1C1N=C(SC)Nc2coc(O)c21` (stereo unspecified) [4-(2-Butylsulfanyl-phenyl)-2-methylsulfanyl-4,7-dihydro-1H-furo[3,4-d]pyrimidin-5-one], greater than 50 µM; with `CSC1=NC2c3ccccc3SCCCCCOC(=O)C2C(C)=N1` (stereo unspecified) [4-Methyl-2-methylsulfanyl-3,8,9,10,11,16b-hexahydro-7H-6-oxa-12-thia-1,3-diaza-dibenzo[a,c]cyclododecen-5-one], 0.018 µM.
With `CSC1=NC(C)=C2C(=O)OCCCCCSc3c(cccc3[N+](=O)[O-])C2N1` (stereo unspecified) [4-Methyl-2-methylsulfanyl-13-nitro-3,8,9,10,11,16b-hexahydro-7H-6-oxa-12-thia-1,3-diaza-dibenzo[a,c]cyclododecen-5-one] the figure was 0.005 µM.
With `CSC1=NC2C(=C(C)N1)C(=O)OCCCCCSc1ccc([N+](=O)[O-])cc12` (stereo unspecified) [4-Methyl-2-methylsulfanyl-15-nitro-3,8,9,10,11,16b-hexahydro-7H-6-oxa-12-thia-1,3-diaza-dibenzo[a,c]cyclododecen-5-one] the figure was 0.873 µM.
Consider `COC(=O)C1C(C)=NC(SC)=NC1c1cc([N+](=O)[O-])ccc1SC` (stereo unspecified) [6-Methyl-2-methylsulfanyl-4-(2-methylsulfanyl-5-nitro-phenyl)-1,4-dihydro-pyrimidine-5-carboxylic acid methyl ester], for which the dissociation constant Kd was 2.7 µM.
Turning to `COC(=O)C1C(C)=NC(SC)=NC1c1ccccc1SC` (stereo unspecified) [6-Methyl-2-methylsulfanyl-4-(2-methylsulfanyl-phenyl)-1,4-dihydro-pyrimidine-5-carboxylic acid methyl ester], the Kd turned out to be 1.52 µM.
With `COC(=O)C1C(C)=NC(SC)=NC1c1cccc([N+](=O)[O-])c1` (stereo unspecified) [6-Methyl-2-methylsulfanyl-4-(3-nitro-phenyl)-1,4-dihydro-pyrimidine-5-carboxylic acid methyl ester] the figure was 0.48 µM.
